Data on one molecule can be found in patent publication US20240342150A1 (priority 2021, published 2024).

One test relates to SARS-CoV-2 variants. The test can be described thus: microbe, parasite or virus in culture. Format: cell-based.
Another test deals with SARS-CoV-2 variant D614G. The test is classed as cell-based.

A word on the IC50: it is the concentration that gives 50% inhibition. For `O=C(c1ccc(OCCN2CCCCC2)cc1)c1c(-c2ccc(O)cc2)sc2cc(O)ccc12` [Raloxifene, 1-[6-hydroxy-2-(4-hydroxyphenyl)benzo[b]thien-3-yl]-1-[4-[2-(1-piperidinyl)ethoxy]phenyl]methanone], the IC50 in the test on SARS-CoV-2 variants (Severe acute respiratory syndrome coronavirus 2, Vero C1008, read-out: IC50 calculated on recovering of cell viability) was 4.5 to 7.99 µM; with SARS-CoV-2 variant D614G, 7.48 µM. Also, in the test with SARS-CoV-2 variants (all the tested viral variants), the “recovery of viability in infected Vero E6 cells” value is recorded as “able to recover viability”.
